Assay results taken from patent US20220000875A1, “TOPICAL COMPOSITIONS COMPRISING PENTOXIFYLLINE AND METHODS OF TREATMENT USING THE SAME” (priority 2018, published 2022).

Legend:
[1] = Adverse events in the randomized, open-label clinical study; conditions: adverse event
Protocol: (§1) A randomized, open-label, proof-of-concept clinical study was conducted under an FDA Investigational New Drug Application (IND). […] The CLC was administered orally as a pill and dosed as determined by the subject's physician. No less than every 48 hours, subjects' ulcers were photographed and examined using digital image processing to determine ulcer area, over a period of 14 days, which include daily collection of adverse events, ulcer number, and pain scores.
(§2) Inclusion criteria required the recent (<2 days) appearance of a new oral ulcer. Patients on immunosuppressant therapies were excluded from the study.
All adverse events were reviewed in real time by the treating physician investigator.

[2] = system: oral ulcers of BD patients; assay: Randomized, open-label, proof-of-concept clinical study of topical PTX muco-adherent gel: oral ulcer healing, ulcer number, pain; type: in vivo, human
Protocol: as §1, §2
Patients were contacted daily for 14 consecutive days and were examined in-person no less than every 48 hours except for weekends. On the first day of entry into the study, the largest ulcer was identified and photographed as the “index ulcer”; its location was recorded and it was subsequently photographed at every in-person visit. Photographs were made with a paper ruler showing millimeter graduations lain in the same plane as the ulcer itself. Graphical processing software was used to compute the ulcer area in square millimeters; this software was calibrated from the paper ruler image and required drawing a line around the image of the ulcer margin.
Then, the proportion of patients with undetectable index ulcer (defined as those with an ulcer area of less than 1 mm^2) at day 4 was compared. Lastly, the trend in mean ulcer area over 14 days was compared as well as the results' sensitivity to outliers.
The total number of oral ulcers were also counted at each in-person visit, and the daily average number of oral ulcers were calculated during the treatment period.
The average day zero pain score for each treatment group was normalized to 100%. Then for each treatment group averages were plotted for succeeding days as a percentage of the first day's pain score average.

[3] = cited from earlier work
[4] = interpreted as dermal manifestations of BD
[5] = day 2 of treatment, PTX+CLC n = 18, CLC n = 21

Structure (SMILES)	Dysgeusia, % of patients [1]	Dysgeusia, number of patients [1]	Nausea, % of patients [1]	Nausea, number of patients [1]	Vomiting, number of patients [1]	limited dermal rashes, % of patients [1, 4]	limited dermal rashes, number of patients [1, 4]	Day 2 Growth/Shrinkage - Patients with Index Ulcer Growth, % [2, 5]	Day 2 Growth/Shrinkage - Patients with Index Ulcer Growth, Number [2, 5]	Day 2 Growth/Shrinkage - Patients with Index Ulcer Shrinkage, % [2, 5]	Day 2 Growth/Shrinkage - Patients with Index Ulcer Shrinkage, Number [2, 5]	Day 4 Clearance - Patients with Remaining Ulcers, % ([2]; day 4, PTX+CLC n = 18, CLC n = 21)	Day 4 Clearance - Patients with Undetectable Ulcers, % ([2]; day 4, undetectable = ulcer area of less than 1 mm^2, PTX+CLC n = 18, CLC n = 21)	mean index ulcer area by treatment group (trend) ([2]; over 14 days, FIG. 1)	daily average number of oral ulcers during the treatment phase ([2]; two weeks of treatment)	plasma levels of metabolite relative to PTX [3]
COc1cc2c(c(OC)c1OC)-c1ccc(OC)c(=O)cc1[C@@H](NC(C)=O)CC2 [CLC, colchicine]	0%	0	10%	2	none	29%	6	80%	16	19%	4	71%	29%	first growing then slowly decreasing	1.89+/−1.36	–
CC(O)CCCCn1c(=O)c2c(ncn2C)n(C)c1=O (centres unmarked) [Metabolite 1, 1-[5-hydroxyhexyl]-3,7-dimethylxanthine]	–	–	–	–	–	–	–	–	–	–	–	–	–	–	–	five
Cn1cnc2c1c(=O)n(CCCC(=O)O)c(=O)n2C [Metabolite V, 1-[3-carboxypropyl]-3,7-dimethylxanthine]	–	–	–	–	–	–	–	–	–	–	–	–	–	–	–	eight
